Source: patent US9598390B2, “Bicyclo[2.2.2]acid GPR120 modulators” (BRISTOL-MYERS SQUIBB COMPANY, priority 2013, dated 2017)

Each molecule was assayed against T1, human GPR120 (Homo sapiens, UniProt Q5NUL3) (assay: GPR120 pERK AlphaScreen SureFire Assay (human GPR120 pERK assay)). Conditions: CHO cells stably transfected with the short form of human GPR120 receptor.
T1 construct: expressed in transfected cells; host or cells: CHOA12 cells or CHO-K1 cells, stably transfected
T1 sequence (Q5NUL3 1-361): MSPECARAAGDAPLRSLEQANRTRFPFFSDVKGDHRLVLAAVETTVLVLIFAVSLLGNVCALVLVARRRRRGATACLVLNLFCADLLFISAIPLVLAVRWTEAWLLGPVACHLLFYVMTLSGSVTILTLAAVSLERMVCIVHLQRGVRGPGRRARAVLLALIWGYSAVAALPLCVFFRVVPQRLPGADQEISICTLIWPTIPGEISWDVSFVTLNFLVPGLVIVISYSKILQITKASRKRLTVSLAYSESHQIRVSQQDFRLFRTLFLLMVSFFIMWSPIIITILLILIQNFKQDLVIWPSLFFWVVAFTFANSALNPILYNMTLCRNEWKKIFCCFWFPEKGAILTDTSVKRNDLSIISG
Format: cell-based
Text: GPR120 activity was monitored by measuring phosphorylation of ERK (pERK), since G protein receptors are known to activate the ERK signaling cascade either directly and/or through recruitment of arrestin that serves as a scaffold for downstream signaling events.
GPR120 pERK AlphaScreen SureFire Assay
The human and mouse GPR120-mediated intracellular phosphorylated ERK assays were established using CHOAl2 cells stably transfected with the short form of human or mouse GPR120 receptor. Cells were cultured in growth medium consisting of F-12 media (Invitrogen Cat. #11765) with 5% Charcoal/Dextran FBS (Invitrogen Cat. #12676-029), 500 μg/mL GENETICIN® (Life Technologies Cat. #10131-027) and 250 μg/mL Zeocin (Invitrogen Cat. #R250-01). Cells were cryo preserved at a concentration of 2×10^7 cells/mL, in 90% Charcoal/Dextran FBS and 10% DMSO, and frozen in liquid nitrogen at a low passage number.
For the pERK assay, 2×10^7 cells/mL cryopreserved human and mouse cells were thawed rapidly in a 37° C. water bath and added to a T-225 flask containing 50 mL growth medium. The flasks were placed in a tissue culture incubator overnight (37° C., 5% CO2). The next day, cells were harvested with trypsin (Gibco Cat. #25300-054), resuspended in serum-containing growth medium and counted using a Cellometer and volume adjusted to a concentration of 0.6×10^6cells/mL. Cells were plated into 384-well clear bottom tissue culture plates (BD Cat. #353962) at 50 μL/well, for a density of 30,000 cells/well using a MULTIDROP® and incubated for 16-18 hours (overnight) at 37° C. with 5% CO2. The next day, cells were serum starved in 30 μL of F-12 media without any serum or antibiotics for 2 hours at 37° C.
Test compounds were 3-fold, 11-point serially diluted in DMSO in a REMP assay plate (Matrix Cat. #4307) by Tecan and 5 μL was transferred into an ECHO source plate (Labcyte Cat. #LC-0200). Cells were then stimulated with 50 nL of compound dilutions using ECHO liquid handler for 7 minutes at 37° C. Compounds ranged from final assay concentrations of 33.33 μM to 0.56 nM.
The media was then dumped and cells lysed with 20 μL of 1× Lysis buffer from the AlphaScreen SureFire Phospho-ERK 1/2 Kit (Perkin Elmer Cat. #6760617M). The lysis buffer was diluted 5-fold with water before use. The plate was agitated on a shaker for 10 minutes after which 2 μL was transferred into a 384-well white proxiplate (Perkin Elmer Cat. #6008289). The SureFire assay reagent mix was prepared by mixing 60 parts Reaction Buffer, 10 parts Activation Buffer, 1 part Donor Beads, 1 part Acceptor Beads (Perkin Elmer Cat. #TGRES10K). 3.5 μL/well of this reagent mix was manually added to the proxiplate with a multichannel pipettor. Plates were spun down at 1000 rpm for 2 minutes, followed by light-protected incubation at room temperature for 2 hours. The plates were read on the Alpha-technology compatible Envision multilabel plate reader using AlphaScreen protocol according to manufacturer's specifications. The agonist effect of compounds was expressed as 100×(average sample-average blank)/(average total−average blank) where sample is the luminescence activity in the presence of test compound, blank is equal to the luminescence activity in the presence of DMSO control and the total is signal induced by 50 μM linolenic acid as reference compound. Activation data for the test compound over a range of concentrations was plotted as percentage activation of the test compound (100%=maximum response). After correcting for background, EC50 values were determined. The EC50 is defined as the concentration of test compound which produces 50% of the maximal response and was quantified using the 4 parameter logistic equation to fit the data.
The human and mouse GPR120-mediated intracellular phosphorylated ERK assays were also established using CHO-K1 cells stably transfected with the short form of human or mouse GPR120 receptor. […]

First: CC1(C)Cc2cc(Cl)cc(COC34CCC(CCC(=O)O)(CC3)CC4)c2O1 [Example 1, 3-(4-((5-Chloro-2,2-dimethyl-2,3-dihydrobenzofuran-7-yl)methoxy)bicyclo[2.2.2]octan-1-yl)propanoic acid]
Second: CC1(C)Cc2cc(Cl)cc(COC34CCC(CCCC(=O)O)(CC3)CC4)c2O1 [Example 2, 4-(4-((5-Chloro-2,2-dimethyl-2,3-dihydrobenzofuran-7-yl)methoxy)bicyclo[2.2.2]octan-1-yl)butanoic acid]
The EC50 of the first is 4-fold lower: 0.61 µM for the first, 2.47 µM for the second. The first is the more potent here.

First: N#Cc1cccc(OC23CCC(CCCC(=O)O)(CC2)CC3)c1 [Example 3, 4-(4-(3-Cyanophenoxy)bicyclo[2.2.2]octan-1-yl)butanoic acid]
Second: COc1cccc(COC23CCC(CCCC(=O)O)(CC2)CC3)c1 [Example 7, 4-(4-(3-Methoxy-benzyloxy)bicyclo[2.2.2]octan-1-yl)butanoic acid]
The EC50 of the first is 6.2-fold lower: 1.11 µM for the first, 6.91 µM for the second.

Going from `Cc1cc(COC23CCC(CCC(=O)O)(CC2)CC3)n(-c2ccc(Cl)cc2)n1` [Example 4, 3-(4-((1-(4-Chlorophenyl)-3-methyl-1H-pyrazol-5-yl)methoxy)bicyclo[2.2.2]octan-1-yl)propanoic acid] to `O=C(O)CCC12CCC(OCc3cc(F)ccc3Oc3ccccc3)(CC1)CC2` [Example 9, 3-(4-(5-Fluoro-2-phenoxybenzyloxy)bicyclo[2.2.2]octan-1-yl)propanoic acid], the EC50 falls from 2.74 µM to 0.28 µM (9.8-fold).

Compared with `O=C(O)CCC12CCC(OCc3cccc(Oc4ccccc4)c3)(CC1)CC2` [Example 5, 3-(4-(3-Phenoxy-benzyloxy)bicyclo[2.2.2]octan-1-yl)propanoic acid], `O=C(O)COCC12CCC(OCc3cccc(Oc4ccccc4)c3)(CC1)CC2` [Example 10, 2-((4-(3-Phenoxybenzyloxy)bicyclo[2.2.2]octan-1-yl)methoxy)acetic acid] is 1.6-fold higher in EC50: 0.43 µM for the first, 0.68 µM for the second. The first is the more potent here.

`O=C(O)CCC12CCC(OCc3ccccc3Oc3ccccc3)(CC1)CC2` [Example 6, 3-(4-(2-Phenoxy-benzyloxy)bicyclo[2.2.2]octan-1-yl)propanoic acid] and `O=C(O)CCC12CCC(OCc3cc(F)cc(Oc4ccccc4)c3)(CC1)CC2` [Example 8, 3-(4-(3-Fluoro-5-phenoxy-benzyloxy)bicyclo [2.2.2]octan-1-yl)propanoic acid] are within 1.5-fold of each other in EC50: 0.4 µM for the first, 0.27 µM for the second.

Going from `CC(C)Oc1cc(F)cc(COC23CCC(CCC(=O)O)(CC2)CC3)c1` [Example 11, 3-(4-(3-Fluoro-5-isopropoxybenzyloxy)bicyclo[2.2.2]octan-1-yl)propanoic acid] to `O=C(O)CCC12CCC(OCc3cc(F)cc(Oc4ccc(F)cc4)c3)(CC1)CC2` [Example 12, 3-(4-(3-Fluoro-5-(4-fluorophenoxy)benzyloxy)bicyclo[2.2.2]octan-1-yl)propanoic acid], the EC50 falls from 0.87 µM to 0.54 µM (1.6-fold).

First: CC1(C)Cc2cc(Cl)cc(OCC34CCC(/C=C/C(=O)O)(CC3)CC4)c2O1 [Example 13, (E)-3-(4-(((5-Chloro-2,2-dimethyl-2,3-dihydrobenzofuran-7-yl)oxy)methyl)bicyclo[2.2.2]octan-1-yl)acrylic acid]
Second: CC1(C)Cc2cc(Cl)cc(OCC34CCC(CCC(=O)O)(CC3)CC4)c2O1 [Example 15, 3-(4-(((5-Chloro-2,2-dimethyl-2,3-dihydrobenzofuran-7-yl)oxy)methyl)bicyclo[2.2.2]octan-1-yl)propanoic acid]
The EC50 of the first is 2-fold higher: 2.69 µM for the first, 1.34 µM for the second.

Molecule `CC1(C)Cc2cccc(OCC34CCC(CCC(=O)O)(CC3)CC4)c2O1` [Example 14, 3-(4-(((2,2-Dimethyl-2,3-dihydrobenzofuran-7-yl)oxy)methyl)bicyclo[2.2.2]octan-1-yl)propanoic acid] has an EC50 of 0.9 µM.
